Experimental data: ChEMBL document CHEMBL1201862, “PubChem BioAssay data set” (2004)
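Briefly, cells in 96-well plates were exposed to five compound concentrations for 48 h, and endpoints were estimated by linear interpolation. GI50: concentration for 50% inhibition of growth.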 The source made the active and inactive calls. Cut-off read from the data, not from the text of the source: active = GI50 up to about 1.1 µM and inactive = higher.

Columns and labels:
Assay in all cases: inhibition of tumour cell growth, NCI panel, 48 h
NCI-H522 = test system: NCI-H522
PC-3 = test system: PC-3
RXF 393 = test system: RXF 393
NCI-H226 = test system: NCI-H226
M14 = test system: M14
U-251 = test system: U-251
TK-10 = test system: TK-10
SNB-19 = test system: SNB-19
OVCAR-8 = test system: OVCAR-8
BT-549 = test system: BT-549
SF-268 = test system: SF-268
HCC 2998 = test system: HCC 2998
T47D = test system: T47D
SW-620 = test system: SW-620
SK-MEL-28 = test system: SK-MEL-28
SR = test system: SR
MCF7 = test system: MCF7
IGROV-1 = test system: IGROV-1
OVCAR-3 = test system: OVCAR-3
SF-539 = test system: SF-539

| SMILES | GI50 (NCI-H522) | GI50 (PC-3) | GI50 (RXF 393) | GI50 (NCI-H226) | GI50 (M14) | GI50 (U-251) | GI50 (TK-10) | GI50 (SNB-19) | GI50 (OVCAR-8) | GI50 (BT-549) | GI50 (SF-268) | GI50 (HCC 2998) | GI50 (T47D) | GI50 (SW-620) | GI50 (SK-MEL-28) | GI50 (SR) | GI50 (MCF7) | GI50 (IGROV-1) | GI50 (OVCAR-3) | GI50 (SF-539) |
| --- | --- | --- | --- | --- | --- | --- | --- | --- | --- | --- | --- | --- | --- | --- | --- | --- | --- | --- | --- | --- |
| N#Cc1nc2ccccc2nc1N1CCN(c2ccc([N+](=O)[O-])cc2)CC1 | > 100 µM (inactive) | > 100 µM (inactive) | > 100 µM (inactive) | > 100 µM (inactive) | > 100 µM (inactive) | > 100 µM (inactive) | > 100 µM (inactive) | > 100 µM (inactive) | > 100 µM (inactive) | > 100 µM (inactive) | > 100 µM (inactive) | > 100 µM (inactive) | > 100 µM (inactive) | > 100 µM (inactive) | > 100 µM (inactive) | 0.0339 µM (active) | > 100 µM (inactive) | > 100 µM (inactive) | – | – |
| CCCCCC1CC=CC(=O)O1 (stereo unspecified) | 2.92 µM (inactive) | 3.78 µM (inactive) | 4.49 µM (inactive) | – | 12 µM (inactive) | 3.56 µM (inactive) | 11.6 µM (inactive) | 10.5 µM (inactive) | 5.97 µM (inactive) | 12.3 µM (inactive) | 10.6 µM (inactive) | – | 11.4 µM (inactive) | 4.1 µM (inactive) | 4.51 µM (inactive) | 3.39 µM (inactive) | 6.52 µM (inactive) | 2.94 µM (inactive) | 10.5 µM (inactive) | 1.32 µM (inactive) |
| O=C(NC(Cc1ccccc1)P(=O)(O)c1ccccc1)OCc1ccccc1 (stereo unspecified) | > 100 µM (inactive) | > 100 µM (inactive) | – | > 100 µM (inactive) | > 100 µM (inactive) | > 100 µM (inactive) | > 100 µM (inactive) | > 100 µM (inactive) | > 100 µM (inactive) | > 100 µM (inactive) | > 100 µM (inactive) | – | > 100 µM (inactive) | > 100 µM (inactive) | > 100 µM (inactive) | > 100 µM (inactive) | > 100 µM (inactive) | > 100 µM (inactive) | > 100 µM (inactive) | – |
| O=C1O[C@H]2[C@@H]3OC(=O)c4cc(O)c(O)c(O)c4-c4c(cc(O)c(O)c4O)C(=O)OC[C@H]2O[C@@H](OC(=O)c2cc(O)c(O)c(O)c2)[C@@H]3OC(=O)c2cc(O)c(O)c3c2[C@@H]2C1=CC(=O)C(O)(O)C2(O)O3 (stereo partly specified) | 28.1 µM (inactive) | 39.7 µM (inactive) | 36.5 µM (inactive) | 23.2 µM (inactive) | 19.7 µM (inactive) | 15.6 µM (inactive) | – | 76.9 µM (inactive) | 19.5 µM (inactive) | 72.8 µM (inactive) | 74.1 µM (inactive) | 21 µM (inactive) | 26.8 µM (inactive) | 18.5 µM (inactive) | > 100 µM (inactive) | 29 µM (inactive) | 25.2 µM (inactive) | 52.8 µM (inactive) | 35.6 µM (inactive) | – |
| O=C(O)COc1c(Cl)cc(Cl)c(C(c2c(Cl)cc(Cl)c(OCC(=O)O)c2Cl)C(Cl)(Cl)Cl)c1Cl | 33.8 µM (inactive) | 38 µM (inactive) | 30.9 µM (inactive) | 21.4 µM (inactive) | 20.7 µM (inactive) | 26.7 µM (inactive) | 31.9 µM (inactive) | > 100 µM (inactive) | 43.8 µM (inactive) | 23.1 µM (inactive) | 39.6 µM (inactive) | 12.1 µM (inactive) | 30.3 µM (inactive) | 29.8 µM (inactive) | 40.2 µM (inactive) | – | 36.1 µM (inactive) | 32.8 µM (inactive) | – | 29.2 µM (inactive) |
| Cc1nc(N)c(N2CCN(S(=O)(=O)N(Cc3ccccc3)Cc3ccccc3)CC2)c(O)n1 | > 10 µM (inactive) | 20.4 µM (inactive) | – | 30.1 µM (inactive) | 28.5 µM (inactive) | 16.9 µM (inactive) | 26.5 µM (inactive) | 25 µM (inactive) | 35.2 µM (inactive) | 48.9 µM (inactive) | 28.6 µM (inactive) | 87.3 µM (inactive) | 15.3 µM (inactive) | 69.7 µM (inactive) | 17.6 µM (inactive) | > 100 µM (inactive) | 72.3 µM (inactive) | – | 20.6 µM (inactive) | 23.2 µM (inactive) |
| CC1(C)CC[C@]2(C(=O)O)CC[C@]3(C)C(=CC[C@@H]4[C@@]5(C)CC[C@H](OC6OC(CO)C(O)C(O)C6OC6OC(CO)C(O)C(O)C6O)C(C)(C)[C@@H]5CC[C@]43C)[C@@H]2C1 (stereo partly specified) | 20.6 µM (inactive) | 17 µM (inactive) | 19.1 µM (inactive) | 17.6 µM (inactive) | 16.2 µM (inactive) | 2.38 µM (inactive) | – | 18.3 µM (inactive) | 19.4 µM (inactive) | 19.5 µM (inactive) | 17.2 µM (inactive) | 20.8 µM (inactive) | 21.3 µM (inactive) | 22.5 µM (inactive) | 14.6 µM (inactive) | 22.5 µM (inactive) | 19.6 µM (inactive) | 18.9 µM (inactive) | 15.7 µM (inactive) | – |
| O=C(/C=C/c1cccc([N+](=O)[O-])c1)N1CCN(CCOC(c2ccccc2)c2ccccc2)CC1 | 24.5 µM (inactive) | – | 34.4 µM (inactive) | – | 32.9 µM (inactive) | – | 22.7 µM (inactive) | > 100 µM (inactive) | 30.6 µM (inactive) | 27.4 µM (inactive) | – | 23.7 µM (inactive) | 17.9 µM (inactive) | 38.9 µM (inactive) | 25.9 µM (inactive) | 16.1 µM (inactive) | 27.9 µM (inactive) | 42.6 µM (inactive) | 66.1 µM (inactive) | – |
| O=C1CNc2cc(N3CCN(c4cccc(C(F)(F)F)c4)CC3)ccc2N1 | 13.9 µM (inactive) | 44.4 µM (inactive) | – | 19.6 µM (inactive) | 18 µM (inactive) | 31 µM (inactive) | 69.2 µM (inactive) | > 100 µM (inactive) | 83.2 µM (inactive) | 42.8 µM (inactive) | > 100 µM (inactive) | 68.1 µM (inactive) | 32.3 µM (inactive) | 51.2 µM (inactive) | 68.5 µM (inactive) | 46.3 µM (inactive) | 43.1 µM (inactive) | 30.8 µM (inactive) | 27.5 µM (inactive) | 57.3 µM (inactive) |
| COc1cccc(C2CC(C)(O)Oc3cc4c(cc32)OCO4)c1 (stereo unspecified) | 7.21 µM (inactive) | 25.1 µM (inactive) | 28 µM (inactive) | 17.3 µM (inactive) | 12.5 µM (inactive) | 23.4 µM (inactive) | 21.1 µM (inactive) | 32.6 µM (inactive) | 29.6 µM (inactive) | 16.1 µM (inactive) | 30.6 µM (inactive) | 27.5 µM (inactive) | 27.8 µM (inactive) | 7.31 µM (inactive) | 52.6 µM (inactive) | 4.58 µM (inactive) | 17.9 µM (inactive) | 24 µM (inactive) | 19.4 µM (inactive) | – |
| [N-]=[N+]=CC(=O)C1CCCN1C(=O)c1ccccc1 (stereo unspecified) | – | > 10 µM (inactive) | > 10 µM (inactive) | > 10 µM (inactive) | > 10 µM (inactive) | > 10 µM (inactive) | > 10 µM (inactive) | > 10 µM (inactive) | > 10 µM (inactive) | > 10 µM (inactive) | > 10 µM (inactive) | > 10 µM (inactive) | > 10 µM (inactive) | > 10 µM (inactive) | > 10 µM (inactive) | > 10 µM (inactive) | > 10 µM (inactive) | > 10 µM (inactive) | > 10 µM (inactive) | > 10 µM (inactive) |
| Sc1nnc(Cc2ccc(Cl)cc2)[nH]1 | – | 49.1 µM (inactive) | – | 65.5 µM (inactive) | > 100 µM (inactive) | 58.1 µM (inactive) | 66.2 µM (inactive) | 71 µM (inactive) | 46.6 µM (inactive) | > 100 µM (inactive) | – | > 100 µM (inactive) | 29.4 µM (inactive) | 85.5 µM (inactive) | > 100 µM (inactive) | 58.6 µM (inactive) | 51.9 µM (inactive) | 44.5 µM (inactive) | > 100 µM (inactive) | 66.4 µM (inactive) |
| CNc1nc2c(C)ccc3nc(N(C)C)nc-3c2n1C | > 10 µM (inactive) | > 10 µM (inactive) | > 10 µM (inactive) | > 10 µM (inactive) | > 10 µM (inactive) | > 10 µM (inactive) | > 10 µM (inactive) | > 10 µM (inactive) | > 10 µM (inactive) | > 10 µM (inactive) | > 10 µM (inactive) | > 10 µM (inactive) | > 10 µM (inactive) | > 10 µM (inactive) | > 10 µM (inactive) | – | > 10 µM (inactive) | > 10 µM (inactive) | > 10 µM (inactive) | > 10 µM (inactive) |
| COc1ccc(C2NC3=C(CCCC3)C3(C#N)C(=O)N=C(N)C23C#N)cc1 (stereo unspecified) | > 100 µM (inactive) | > 100 µM (inactive) | > 100 µM (inactive) | > 100 µM (inactive) | > 100 µM (inactive) | > 100 µM (inactive) | > 100 µM (inactive) | > 100 µM (inactive) | > 100 µM (inactive) | > 100 µM (inactive) | > 100 µM (inactive) | > 100 µM (inactive) | > 100 µM (inactive) | > 100 µM (inactive) | > 100 µM (inactive) | – | > 100 µM (inactive) | > 100 µM (inactive) | – | – |
| CCc1n[nH]c(=O)n1/N=C(\C)c1ccc([N+](=O)[O-])cc1 | – | > 100 µM (inactive) | 78.5 µM (inactive) | > 100 µM (inactive) | > 100 µM (inactive) | > 100 µM (inactive) | > 100 µM (inactive) | > 100 µM (inactive) | > 100 µM (inactive) | > 100 µM (inactive) | 26.3 µM (inactive) | – | > 100 µM (inactive) | 94.2 µM (inactive) | > 100 µM (inactive) | – | 30.2 µM (inactive) | 82.6 µM (inactive) | > 100 µM (inactive) | – |
